Assay results as given in the NIST ThermoML archive (doi:10.1021/je034177v).
Numbers after ± are expanded uncertainties.

Assays:
[1] = 101 kPa, Liquid; for speed of sound: Pulse-echo method; for mass density: Vibrating tube method
[2] = molar heat capacity at constant pressure; conditions: 101 kPa, Liquid, Small sample (50 mg) DSC
[3] = xn = mol fraction of the nth substance listed; conditions: 101 kPa, Liquid, x2 = 0; for speed of sound: Pulse-echo method; for mass density: Vibrating tube method
[4] = molar heat capacity at constant pressure; xn = mol fraction of the nth substance listed; conditions: 101 kPa, Liquid, Small sample (50 mg) DSC, x2 = 0

ClCCCCCCl [1,5-dichloropentane]
speed of sound ([1]; 278.15 K): 1376.6 ± 1.1 m/s | mass density ([1]; 278.15 K): 1115.28 ± 0.52 kg/m3 | speed of sound ([1]; 283.15 K): 1358.9 ± 1.1 m/s | mass density ([1]; 283.15 K): 1110.26 ± 0.52 kg/m3 | speed of sound ([1]; 288.15 K): 1341 ± 1.1 m/s | mass density ([1]; 288.15 K): 1105.2 ± 0.52 kg/m3 | speed of sound ([1]; 293.15 K): 1323.2 ± 1.1 m/s | mass density ([1]; 293.15 K): 1100.16 ± 0.51 kg/m3 | speed of sound ([1]; 298.15 K): 1305.4 ± 1.1 m/s | mass density ([1]; 298.15 K): 1095.11 ± 0.51 kg/m3 | speed of sound ([1]; 303.15 K): 1287.9 ± 1.1 m/s | mass density ([1]; 303.15 K): 1090.07 ± 0.51 kg/m3 | speed of sound ([1]; 308.15 K): 1270.3 ± 1.1 m/s | mass density ([1]; 308.15 K): 1085.02 ± 0.51 kg/m3 | speed of sound ([1]; 313.15 K): 1253 ± 1.1 m/s | mass density ([1]; 313.15 K): 1079.97 ± 0.5 kg/m3 | speed of sound ([1]; 318.15 K): 1235.8 ± 1.1 m/s | mass density ([1]; 318.15 K): 1074.95 ± 0.5 kg/m3 | speed of sound ([1]; 323.15 K): 1218.7 ± 1.1 m/s | mass density ([1]; 323.15 K): 1069.89 ± 0.5 kg/m3 | speed of sound ([1]; 328.15 K): 1201.6 ± 1.1 m/s | mass density ([1]; 328.15 K): 1064.93 ± 0.5 kg/m3 | molar heat capacity at constant pressure ([2]; 283.15 K): 209.65 ± 3.2 J/K/mol | molar heat capacity at constant pressure ([2]; 288.15 K): 210.73 ± 3.3 J/K/mol | molar heat capacity at constant pressure ([2]; 293.15 K): 211.89 ± 3.3 J/K/mol | molar heat capacity at constant pressure ([2]; 298.15 K): 212.94 ± 3.3 J/K/mol | molar heat capacity at constant pressure ([2]; 303.15 K): 214.06 ± 3.3 J/K/mol | molar heat capacity at constant pressure ([2]; 308.15 K): 215.21 ± 3.3 J/K/mol | molar heat capacity at constant pressure ([2]; 313.15 K): 216.38 ± 3.4 J/K/mol | molar heat capacity at constant pressure ([2]; 318.15 K): 217.56 ± 3.4 J/K/mol | molar heat capacity at constant pressure ([2]; 323.15 K): 218.76 ± 3.4 J/K/mol

ClCCCCCCCl [1,6-dichlorohexane]
speed of sound ([1]; 278.15 K): 1387.4 ± 0.85 m/s | mass density ([1]; 278.15 K): 1082.7 ± 0.3 kg/m3 | speed of sound ([1]; 283.15 K): 1370 ± 0.85 m/s | mass density ([1]; 283.15 K): 1077.97 ± 0.29 kg/m3 | speed of sound ([1]; 288.15 K): 1352.3 ± 0.84 m/s | mass density ([1]; 288.15 K): 1073.22 ± 0.29 kg/m3 | speed of sound ([1]; 293.15 K): 1334.8 ± 0.84 m/s | mass density ([1]; 293.15 K): 1068.47 ± 0.29 kg/m3 | speed of sound ([1]; 298.15 K): 1317.3 ± 0.83 m/s | mass density ([1]; 298.15 K): 1063.74 ± 0.29 kg/m3 | speed of sound ([1]; 303.15 K): 1299.9 ± 0.83 m/s | mass density ([1]; 303.15 K): 1059 ± 0.29 kg/m3 | speed of sound ([1]; 308.15 K): 1282.7 ± 0.82 m/s | mass density ([1]; 308.15 K): 1054.25 ± 0.29 kg/m3 | speed of sound ([1]; 313.15 K): 1265.7 ± 0.82 m/s | mass density ([1]; 313.15 K): 1049.5 ± 0.29 kg/m3 | speed of sound ([1]; 318.15 K): 1248.7 ± 0.81 m/s | mass density ([1]; 318.15 K): 1044.78 ± 0.28 kg/m3 | speed of sound ([1]; 323.15 K): 1231.8 ± 0.81 m/s | mass density ([1]; 323.15 K): 1040.03 ± 0.28 kg/m3 | speed of sound ([1]; 328.15 K): 1215.1 ± 0.8 m/s | mass density ([1]; 328.15 K): 1035.37 ± 0.28 kg/m3 | molar heat capacity at constant pressure ([2]; 283.15 K): 236.59 ± 3.7 J/K/mol | molar heat capacity at constant pressure ([2]; 288.15 K): 237.9 ± 3.7 J/K/mol | molar heat capacity at constant pressure ([2]; 293.15 K): 239.26 ± 3.7 J/K/mol | molar heat capacity at constant pressure ([2]; 298.15 K): 240.6 ± 3.7 J/K/mol | molar heat capacity at constant pressure ([2]; 303.15 K): 241.94 ± 3.8 J/K/mol | molar heat capacity at constant pressure ([2]; 308.15 K): 243.37 ± 3.8 J/K/mol | molar heat capacity at constant pressure ([2]; 313.15 K): 244.81 ± 3.8 J/K/mol | molar heat capacity at constant pressure ([2]; 318.15 K): 246.28 ± 3.8 J/K/mol | molar heat capacity at constant pressure ([2]; 323.15 K): 247.76 ± 3.8 J/K/mol

CCCCCCCCCCCC [dodecane]
speed of sound ([1]; 278.15 K): 1357 ± 1.1 m/s | mass density ([1]; 278.15 K): 759.56 ± 0.34 kg/m3 | speed of sound ([1]; 283.15 K): 1337.4 ± 1.1 m/s | mass density ([1]; 283.15 K): 755.96 ± 0.34 kg/m3 | speed of sound ([1]; 288.15 K): 1317.6 ± 1 m/s | mass density ([1]; 288.15 K): 752.36 ± 0.34 kg/m3 | speed of sound ([1]; 293.15 K): 1298 ± 1 m/s | mass density ([1]; 293.15 K): 748.74 ± 0.34 kg/m3 | speed of sound ([1]; 298.15 K): 1278.5 ± 1 m/s | mass density ([1]; 298.15 K): 745.14 ± 0.34 kg/m3 | speed of sound ([1]; 303.15 K): 1259.2 ± 1 m/s | mass density ([1]; 303.15 K): 741.52 ± 0.34 kg/m3 | speed of sound ([1]; 308.15 K): 1240 ± 1 m/s | mass density ([1]; 308.15 K): 737.88 ± 0.34 kg/m3 | speed of sound ([1]; 313.15 K): 1221 ± 1 m/s | mass density ([1]; 313.15 K): 734.24 ± 0.34 kg/m3 | speed of sound ([1]; 318.15 K): 1202.3 ± 1 m/s | mass density ([1]; 318.15 K): 730.6 ± 0.34 kg/m3 | speed of sound ([1]; 323.15 K): 1183.6 ± 1 m/s | mass density ([1]; 323.15 K): 726.95 ± 0.33 kg/m3 | speed of sound ([1]; 328.15 K): 1165.1 ± 1 m/s | mass density ([1]; 328.15 K): 723.29 ± 0.33 kg/m3 | molar heat capacity at constant pressure ([2]; 283.15 K): 368.47 ± 5.7 J/K/mol | molar heat capacity at constant pressure ([2]; 288.15 K): 370.48 ± 5.7 J/K/mol | molar heat capacity at constant pressure ([2]; 293.15 K): 372.74 ± 5.8 J/K/mol | molar heat capacity at constant pressure ([2]; 298.15 K): 375.04 ± 5.8 J/K/mol | molar heat capacity at constant pressure ([2]; 303.15 K): 377.43 ± 5.8 J/K/mol | molar heat capacity at constant pressure ([2]; 308.15 K): 380.02 ± 5.9 J/K/mol | molar heat capacity at constant pressure ([2]; 313.15 K): 382.73 ± 5.9 J/K/mol | molar heat capacity at constant pressure ([2]; 318.15 K): 385.48 ± 6 J/K/mol | molar heat capacity at constant pressure ([2]; 323.15 K): 388.29 ± 6 J/K/mol

CCCCCCCCCCCC [dodecane] + ClCCCCCCCl
speed of sound ([3]; 278.15 K): 1357 ± 1.1 m/s | mass density ([3]; 278.15 K): 759.56 ± 0.34 kg/m3 | speed of sound ([3]; 283.15 K): 1337.4 ± 1.1 m/s | mass density ([3]; 283.15 K): 755.96 ± 0.34 kg/m3 | speed of sound ([3]; 288.15 K): 1317.6 ± 1 m/s | mass density ([3]; 288.15 K): 752.36 ± 0.34 kg/m3 | speed of sound ([3]; 293.15 K): 1298 ± 1 m/s | mass density ([3]; 293.15 K): 748.74 ± 0.34 kg/m3 | speed of sound ([3]; 298.15 K): 1278.5 ± 1 m/s | mass density ([3]; 298.15 K): 745.14 ± 0.34 kg/m3 | speed of sound ([3]; 303.15 K): 1259.2 ± 1 m/s | mass density ([3]; 303.15 K): 741.52 ± 0.34 kg/m3 | speed of sound ([3]; 308.15 K): 1240 ± 1 m/s | mass density ([3]; 308.15 K): 737.88 ± 0.34 kg/m3 | speed of sound ([3]; 313.15 K): 1221 ± 1 m/s | mass density ([3]; 313.15 K): 734.24 ± 0.34 kg/m3 | speed of sound ([3]; 318.15 K): 1202.3 ± 1 m/s | mass density ([3]; 318.15 K): 730.6 ± 0.34 kg/m3 | speed of sound ([3]; 323.15 K): 1183.6 ± 1 m/s | mass density ([3]; 323.15 K): 726.95 ± 0.33 kg/m3 | speed of sound ([3]; 328.15 K): 1165.1 ± 1 m/s | mass density ([3]; 328.15 K): 723.29 ± 0.33 kg/m3 | molar heat capacity at constant pressure ([4]; 283.15 K): 368.47 ± 5.7 J/K/mol | molar heat capacity at constant pressure ([4]; 288.15 K): 370.48 ± 5.7 J/K/mol | molar heat capacity at constant pressure ([4]; 293.15 K): 372.74 ± 5.8 J/K/mol | molar heat capacity at constant pressure ([4]; 298.15 K): 375.04 ± 5.8 J/K/mol | molar heat capacity at constant pressure ([4]; 303.15 K): 377.43 ± 5.8 J/K/mol | molar heat capacity at constant pressure ([4]; 308.15 K): 380.02 ± 5.9 J/K/mol | molar heat capacity at constant pressure ([4]; 313.15 K): 382.73 ± 5.9 J/K/mol | molar heat capacity at constant pressure ([4]; 318.15 K): 385.48 ± 6 J/K/mol | molar heat capacity at constant pressure ([4]; 323.15 K): 388.29 ± 6 J/K/mol

CCCCCCCCCCCC [dodecane] + ClCCCCCCl
speed of sound ([3]; 278.15 K): 1357 ± 1.1 m/s | mass density ([3]; 278.15 K): 759.56 ± 0.34 kg/m3 | speed of sound ([3]; 283.15 K): 1337.4 ± 1.1 m/s | mass density ([3]; 283.15 K): 755.96 ± 0.34 kg/m3 | speed of sound ([3]; 288.15 K): 1317.6 ± 1 m/s | mass density ([3]; 288.15 K): 752.36 ± 0.34 kg/m3 | speed of sound ([3]; 293.15 K): 1298 ± 1 m/s | mass density ([3]; 293.15 K): 748.74 ± 0.34 kg/m3 | speed of sound ([3]; 298.15 K): 1278.5 ± 1 m/s | mass density ([3]; 298.15 K): 745.14 ± 0.34 kg/m3 | speed of sound ([3]; 303.15 K): 1259.2 ± 1 m/s | mass density ([3]; 303.15 K): 741.52 ± 0.34 kg/m3 | speed of sound ([3]; 308.15 K): 1240 ± 1 m/s | mass density ([3]; 308.15 K): 737.88 ± 0.34 kg/m3 | speed of sound ([3]; 313.15 K): 1221 ± 1 m/s | mass density ([3]; 313.15 K): 734.24 ± 0.34 kg/m3 | speed of sound ([3]; 318.15 K): 1202.3 ± 1 m/s | mass density ([3]; 318.15 K): 730.6 ± 0.34 kg/m3 | speed of sound ([3]; 323.15 K): 1183.6 ± 1 m/s | mass density ([3]; 323.15 K): 726.95 ± 0.33 kg/m3 | speed of sound ([3]; 328.15 K): 1165.1 ± 1 m/s | mass density ([3]; 328.15 K): 723.29 ± 0.33 kg/m3 | molar heat capacity at constant pressure ([4]; 283.15 K): 368.47 ± 5.7 J/K/mol | molar heat capacity at constant pressure ([4]; 288.15 K): 370.48 ± 5.7 J/K/mol | molar heat capacity at constant pressure ([4]; 293.15 K): 372.74 ± 5.8 J/K/mol | molar heat capacity at constant pressure ([4]; 298.15 K): 375.04 ± 5.8 J/K/mol | molar heat capacity at constant pressure ([4]; 303.15 K): 377.43 ± 5.8 J/K/mol | molar heat capacity at constant pressure ([4]; 308.15 K): 380.02 ± 5.9 J/K/mol | molar heat capacity at constant pressure ([4]; 313.15 K): 382.73 ± 5.9 J/K/mol | molar heat capacity at constant pressure ([4]; 318.15 K): 385.48 ± 6 J/K/mol | molar heat capacity at constant pressure ([4]; 323.15 K): 388.29 ± 6 J/K/mol
